Laboratory results reported in ChEMBL document CHEMBL4610129, “Discovery of Novel Selective and Orally Bioavailable Phosphodiesterase-1 Inhibitors for the Efficient Treatment of Idiopathic Pulmonary Fibrosis” (J Med Chem, 2020).
Calls of active or inactive are those of the source. No cut-off for these calls is given here.

Tests used:
Rattus norvegicus [1] = assay: Anti-pulmonary fibrosis activity in Sprague-Dawley rat model of BLM-induced idiopathic pulmonary fibrosis assessed as reduction in lung structural damage at 10 mg/kg, po dosed daily for 28 days by H and E staining based assay; format: functional, organism-based
[2] = biological target: High affinity 3',5'-cyclic-AMP phosphodiesterase 7A (Homo sapiens, UniProt Q13946); assay: Inhibition of PDE7A1 (130 to 482 residues) (unknown origin) using [3H]-cAMP substrate incubated for 15 mins by liquid scintillation counting method relative to control
[3] = Half life in human liver microsomes; format: ADME, Microsome
[4] = biological target: Cone cGMP-specific 3',5'-cyclic phosphodiesterase subunit alpha' (Homo sapiens, UniProt P51160); assay: Inhibition of PDE6C (1 to 858 residues) (unknown origin) using [3H]-cGMP substrate incubated for 15 mins by liquid scintillation counting method relative to control
[5] = biological target: cGMP-dependent 3',5'-cyclic phosphodiesterase (Homo sapiens, UniProt O00408); assay: Inhibition of PDE2A (580 to 919 residues) (unknown origin) using [3H]-cGMP substrate incubated for 15 mins by liquid scintillation counting method relative to control
[6] = biological target: Voltage-gated inwardly rectifying potassium channel KCNH2 (Homo sapiens, UniProt Q12809); assay: Inhibition of human ERG
[7] = Half life in Sprague-Dawley rat at 5 mg/kg, po; format: ADME, organism-based; details: in vivo
[8] = AUC (0 to t) in Sprague-Dawley rat at 5 mg/kg, po; format: ADME, organism-based; details: in vivo
Rattus norvegicus [9] = assay: Anti-pulmonary fibrosis activity in Sprague-Dawley rat model of BLM-induced idiopathic pulmonary fibrosis assessed as inhibition of collagen deposition at 10 mg/kg, po dosed daily for 28 days by Masson staining based assay; format: functional, organism-based
Homo sapiens = organism: Homo sapiens; assay: Anti-pulmonary fibrosis activity in human HLF assessed as reduction in TGF-beta-induced myofibroblast differentiation by measuring reduction in alpha-SMA protein expression incubated for 48 hrs by Western blot analysis; format: functional
Cytochrome P450 3A4 = Cytochrome P450 3A4 (Homo sapiens, UniProt P08684); assay: Inhibition of human CYP3A4 using midazolam as substrate; format: ADME
Rattus norvegicus [10] = assay: Anti-pulmonary fibrosis activity in Sprague-Dawley rat model of BLM-induced idiopathic pulmonary fibrosis assessed as reduction in peak inspiratory flow at 10 mg/kg, po dosed daily for 28 days by mka noninvasive pulmonary monitoring system based method; format: functional, organism-based

Cytochrome P450 3A4, sequence (P08684 whole entry): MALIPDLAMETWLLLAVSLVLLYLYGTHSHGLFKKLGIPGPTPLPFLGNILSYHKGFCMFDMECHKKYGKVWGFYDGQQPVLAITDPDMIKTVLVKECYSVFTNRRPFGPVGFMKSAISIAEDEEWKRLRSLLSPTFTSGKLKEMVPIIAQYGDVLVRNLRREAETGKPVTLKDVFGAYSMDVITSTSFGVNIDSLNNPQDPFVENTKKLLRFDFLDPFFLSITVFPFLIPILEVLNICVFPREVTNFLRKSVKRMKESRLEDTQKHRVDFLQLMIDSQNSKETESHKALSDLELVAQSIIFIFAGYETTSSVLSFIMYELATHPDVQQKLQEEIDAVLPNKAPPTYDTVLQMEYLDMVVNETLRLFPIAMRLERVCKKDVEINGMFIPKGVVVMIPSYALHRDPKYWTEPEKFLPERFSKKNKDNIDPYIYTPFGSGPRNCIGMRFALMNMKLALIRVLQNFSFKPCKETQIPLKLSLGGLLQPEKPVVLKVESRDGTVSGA
cGMP-dependent 3',5'-cyclic phosphodiesterase, sequence (O00408 whole entry, the tested form may be a part): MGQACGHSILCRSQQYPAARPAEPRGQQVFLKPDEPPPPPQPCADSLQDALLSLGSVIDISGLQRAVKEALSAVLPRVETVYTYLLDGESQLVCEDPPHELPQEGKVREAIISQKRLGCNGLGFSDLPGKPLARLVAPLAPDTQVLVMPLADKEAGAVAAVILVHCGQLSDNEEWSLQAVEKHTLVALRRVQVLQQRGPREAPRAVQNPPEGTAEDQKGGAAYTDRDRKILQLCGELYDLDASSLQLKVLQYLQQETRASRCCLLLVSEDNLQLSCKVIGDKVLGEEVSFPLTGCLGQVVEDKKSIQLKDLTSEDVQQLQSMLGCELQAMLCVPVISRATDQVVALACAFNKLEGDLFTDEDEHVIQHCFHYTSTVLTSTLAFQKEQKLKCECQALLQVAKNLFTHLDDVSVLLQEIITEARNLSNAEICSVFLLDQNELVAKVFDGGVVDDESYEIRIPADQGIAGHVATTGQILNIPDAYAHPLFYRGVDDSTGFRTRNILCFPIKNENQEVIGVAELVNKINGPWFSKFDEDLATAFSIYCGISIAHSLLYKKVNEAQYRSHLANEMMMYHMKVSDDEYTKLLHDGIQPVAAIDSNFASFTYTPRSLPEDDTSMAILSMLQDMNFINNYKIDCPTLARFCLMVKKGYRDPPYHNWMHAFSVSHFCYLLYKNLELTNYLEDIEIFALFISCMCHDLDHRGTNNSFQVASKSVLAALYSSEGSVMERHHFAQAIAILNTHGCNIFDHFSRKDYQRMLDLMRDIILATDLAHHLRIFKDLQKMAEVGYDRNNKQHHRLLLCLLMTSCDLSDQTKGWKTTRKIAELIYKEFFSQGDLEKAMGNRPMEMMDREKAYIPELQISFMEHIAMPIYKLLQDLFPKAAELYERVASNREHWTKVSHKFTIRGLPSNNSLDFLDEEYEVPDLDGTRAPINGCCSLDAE
Cone cGMP-specific 3',5'-cyclic phosphodiesterase subunit alpha', sequence (P51160 whole entry, the tested form may be a part): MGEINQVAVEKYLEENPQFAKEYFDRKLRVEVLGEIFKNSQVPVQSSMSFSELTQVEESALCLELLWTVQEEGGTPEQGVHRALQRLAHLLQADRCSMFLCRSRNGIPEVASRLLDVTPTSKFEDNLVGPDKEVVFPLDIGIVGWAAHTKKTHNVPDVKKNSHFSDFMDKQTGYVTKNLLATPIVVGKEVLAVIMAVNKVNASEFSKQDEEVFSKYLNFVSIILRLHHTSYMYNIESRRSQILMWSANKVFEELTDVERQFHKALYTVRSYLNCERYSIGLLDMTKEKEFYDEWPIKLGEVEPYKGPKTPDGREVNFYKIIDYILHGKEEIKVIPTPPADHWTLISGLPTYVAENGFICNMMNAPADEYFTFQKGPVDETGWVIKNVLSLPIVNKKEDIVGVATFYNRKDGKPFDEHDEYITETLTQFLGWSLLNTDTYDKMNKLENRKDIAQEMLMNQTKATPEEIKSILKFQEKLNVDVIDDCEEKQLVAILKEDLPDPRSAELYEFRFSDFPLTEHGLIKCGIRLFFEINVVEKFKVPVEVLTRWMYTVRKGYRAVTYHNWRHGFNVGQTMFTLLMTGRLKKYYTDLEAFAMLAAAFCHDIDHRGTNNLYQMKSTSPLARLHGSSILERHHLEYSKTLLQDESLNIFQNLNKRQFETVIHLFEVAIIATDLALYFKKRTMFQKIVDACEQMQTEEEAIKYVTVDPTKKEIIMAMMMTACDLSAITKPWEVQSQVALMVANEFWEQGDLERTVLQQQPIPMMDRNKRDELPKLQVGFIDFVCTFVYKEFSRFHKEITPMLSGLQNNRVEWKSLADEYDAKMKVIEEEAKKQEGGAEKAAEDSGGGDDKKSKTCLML
Voltage-gated inwardly rectifying potassium channel KCNH2, sequence (Q12809 whole entry): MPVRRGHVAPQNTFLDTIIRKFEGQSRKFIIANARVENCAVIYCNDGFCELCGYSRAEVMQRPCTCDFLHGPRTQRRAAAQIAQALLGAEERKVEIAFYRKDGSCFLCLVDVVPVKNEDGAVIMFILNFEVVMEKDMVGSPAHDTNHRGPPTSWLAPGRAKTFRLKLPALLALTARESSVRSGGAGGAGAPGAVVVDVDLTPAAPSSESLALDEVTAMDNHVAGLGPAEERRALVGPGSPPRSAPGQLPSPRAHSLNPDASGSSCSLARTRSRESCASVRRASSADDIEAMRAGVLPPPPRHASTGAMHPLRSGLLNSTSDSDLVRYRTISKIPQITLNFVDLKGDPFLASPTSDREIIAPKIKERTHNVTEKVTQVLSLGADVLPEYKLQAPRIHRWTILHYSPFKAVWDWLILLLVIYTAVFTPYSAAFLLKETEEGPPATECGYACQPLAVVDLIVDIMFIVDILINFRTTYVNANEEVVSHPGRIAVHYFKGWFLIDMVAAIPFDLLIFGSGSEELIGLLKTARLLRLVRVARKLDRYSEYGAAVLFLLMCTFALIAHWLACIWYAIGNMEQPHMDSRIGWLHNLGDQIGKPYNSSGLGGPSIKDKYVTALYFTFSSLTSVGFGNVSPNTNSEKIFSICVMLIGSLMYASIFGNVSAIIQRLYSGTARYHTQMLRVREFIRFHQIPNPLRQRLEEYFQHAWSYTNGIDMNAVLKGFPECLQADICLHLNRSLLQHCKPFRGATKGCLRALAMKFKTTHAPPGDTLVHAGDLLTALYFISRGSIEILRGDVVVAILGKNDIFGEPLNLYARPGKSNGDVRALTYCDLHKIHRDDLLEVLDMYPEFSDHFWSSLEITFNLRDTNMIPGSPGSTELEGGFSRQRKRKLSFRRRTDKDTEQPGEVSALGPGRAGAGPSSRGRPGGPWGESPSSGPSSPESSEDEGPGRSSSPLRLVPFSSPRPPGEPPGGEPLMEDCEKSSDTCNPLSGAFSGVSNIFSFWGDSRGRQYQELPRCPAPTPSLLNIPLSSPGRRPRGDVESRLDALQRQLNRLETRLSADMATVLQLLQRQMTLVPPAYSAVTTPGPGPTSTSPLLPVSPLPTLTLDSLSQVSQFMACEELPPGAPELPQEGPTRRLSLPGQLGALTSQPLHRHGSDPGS
High affinity 3',5'-cyclic-AMP phosphodiesterase 7A, sequence (Q13946 whole entry, the tested form may be a part): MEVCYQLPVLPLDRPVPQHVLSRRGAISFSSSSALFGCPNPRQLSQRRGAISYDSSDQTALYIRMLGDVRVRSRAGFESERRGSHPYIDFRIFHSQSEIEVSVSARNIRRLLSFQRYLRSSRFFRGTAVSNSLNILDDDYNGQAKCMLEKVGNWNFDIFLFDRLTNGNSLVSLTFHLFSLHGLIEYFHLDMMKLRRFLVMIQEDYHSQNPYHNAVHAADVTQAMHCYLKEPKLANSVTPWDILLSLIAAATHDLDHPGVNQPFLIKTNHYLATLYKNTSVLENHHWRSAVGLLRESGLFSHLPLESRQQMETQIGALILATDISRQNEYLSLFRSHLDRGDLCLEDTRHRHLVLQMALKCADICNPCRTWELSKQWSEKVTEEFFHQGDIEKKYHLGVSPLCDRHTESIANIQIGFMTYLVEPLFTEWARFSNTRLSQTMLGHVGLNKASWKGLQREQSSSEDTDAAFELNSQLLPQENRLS

C[C@@H](Nc1nc2c(cnn2C(C)(C)C)c(=O)n1Cc1ccc(F)cc1)c1ccc(Cl)cc1
Activity (Rattus norvegicus [1]): Active | IC50 [2]: > 10 µM | half-life [3]: 0.262 h | IC50 [4]: > 10 µM | IC50 [5]: > 10 µM | IC50 [6]: 11 µM | half-life [7]: 3.7 h | AUC(0-t) [8]: 1300 ng·h/mL | Activity (Rattus norvegicus [9]): Active | Activity (Homo sapiens): Dose-dependent effect | IC50 (Cytochrome P450 3A4): > 25 µM | Activity (Rattus norvegicus [10]): Active
